Molecular target: recombinant human His-ATG7 enzyme (Homo sapiens (Human), UniProt O95352)
Test: ATG7 Enzyme Assay (HTRF/FRET, ATG3-GST and Flag-Gabarap)
Format: biochemical
Settings: for inhibition at 0.123 µM: Concentration 0.123 μM; for inhibition at 0.111 µM: Concentration 0.111 μM
Description: Example 97: ATG7 Enzyme Assay
The total volume of the ATG7 enzymatic assay is 50 μL and contains 50 mM HEPES Hemisodium (pH 7.5), 0.05% BSA, 0.01% Tween-20, 25 mM NaCl, 5 mM MgCl2, 10 μM ATP, 250 μM GSH, 5 nM ATG3-GST, 5 nM Flag-Gabarap, 100 μM TCEP and 0.15 nM recombinant human His-ATG7 enzyme. The enzymatic reaction mixture, with and without inhibitor, was incubated at 24° C. for 105 min in a 384-well plate before termination with […] of Stop/Detection buffer (0.1M HEPES Hemisodium pH 7.5, 0.05% Tween20, 20 mM EDTA, 410 mM KF, 0.53 nM Europium-Cryptate labeled monoclonal anti-Flag M2 Antibody (CisBio International) and 8.125 μg/ml PHYCOLINK goat anti-GST allophycocyanin (XL-APC) antibody (Prozyme)). After incubation for 2 hours at 24° C., quantification of FRET is performed on the Pherostar™ (BMG Labtech). Percentage inhibition values at a single concentration or enzyme inhibition (IC50) values are determined from those curves. One skilled in the art will appreciate that the values generated either as percentage inhibition at a single concentration or IC50 values are subject to experimental variation.

Sequence of recombinant human His-ATG7 enzyme (O95352 whole entry): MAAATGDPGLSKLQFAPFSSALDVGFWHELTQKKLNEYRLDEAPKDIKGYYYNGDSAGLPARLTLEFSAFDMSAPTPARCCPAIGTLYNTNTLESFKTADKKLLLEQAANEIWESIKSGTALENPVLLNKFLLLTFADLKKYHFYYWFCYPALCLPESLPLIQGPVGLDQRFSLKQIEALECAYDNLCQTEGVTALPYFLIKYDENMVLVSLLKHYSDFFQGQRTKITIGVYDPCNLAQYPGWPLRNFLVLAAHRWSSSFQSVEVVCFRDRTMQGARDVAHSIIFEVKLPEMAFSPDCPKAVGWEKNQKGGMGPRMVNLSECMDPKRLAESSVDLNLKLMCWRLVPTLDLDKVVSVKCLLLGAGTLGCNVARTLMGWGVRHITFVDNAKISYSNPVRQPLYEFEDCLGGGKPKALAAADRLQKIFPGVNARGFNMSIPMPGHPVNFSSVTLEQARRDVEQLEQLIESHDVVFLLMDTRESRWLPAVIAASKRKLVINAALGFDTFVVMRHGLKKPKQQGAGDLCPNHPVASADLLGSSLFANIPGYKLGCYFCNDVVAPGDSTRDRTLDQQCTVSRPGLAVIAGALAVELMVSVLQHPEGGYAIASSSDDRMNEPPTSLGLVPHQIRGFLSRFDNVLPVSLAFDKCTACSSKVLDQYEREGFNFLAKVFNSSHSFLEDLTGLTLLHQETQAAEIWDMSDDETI

IC50 | inhibition at 0.123 µM (read-out: Percent Inhibition) | inhibition at 0.069 µM (Concentration 0.069 μM, read-out: Percent Inhibition) | inhibition at 0.111 µM (read-out: Percent Inhibition) | Compound
100 to 500 nM | 47% |  |  | CSCc1nn([C@@H]2O[C@H](COS(N)(=O)=O)[C@@H](O)[C@H]2O)c2ncnc(N)c12 [Compound I-93, [(2R,3S,4R,5R)-5-{4-amino-3-[(methylsulfanyl)methyl]-1H-pyrazolo[3,4-d]pyrimidin-1-yl}-3,4-dihydroxytetrahydrofuran-2-yl]methyl Sulfamate]
100 to 500 nM |  | 32% |  | Nc1ncnc2c1c(CO)nn2[C@@H]1O[C@H](COS(N)(=O)=O)[C@@H](O)[C@H]1O [Compound I-8, {(2R,3S,4R,5R)-5-[4-amino-3-(hydroxymethyl)-1H-pyrazolo[3,4-d]pyrimidin-1-yl]-3,4-dihydroxytetrahydrofuran-2-yl}methyl Sulfamate]
50 to 100 nM |  |  | 68% | Cc1cccc(Sc2nn([C@@H]3O[C@H](COS(N)(=O)=O)[C@@H](O)[C@@H]3F)c3ncnc(N)c23)n1 [Compound I-102, [(2R,3R,4S,5R)-5-{4-amino-3-[(6-methylpyridin-2-yl)sulfanyl]-1H-pyrazolo[3,4-d]pyrimidin-1-yl}-4-fluoro-3-hydroxytetrahydrofuran-2-yl]methyl sulfamate]
50 to 100 nM |  |  | 61% | COc1cccc(Sc2nn([C@@H]3O[C@H](COS(N)(=O)=O)[C@@H](O)[C@@H]3F)c3ncnc(N)c23)n1 [Compound I-107, [(2R,3R,4S,5R)-5-{4-amino-3-[(6-methoxypyridin-2-yl)sulfanyl]-1H-pyrazolo[3,4-d]pyrimidin-1-yl}-4-fluoro-3-hydroxytetrahydrofuran-2-yl]methyl sulfamate]
100 to 500 nM |  |  | 28% | Nc1ncnc2c1c(Sc1ccc3ccccc3n1)nn2[C@H]1C[C@H](O)[C@@H](COS(N)(=O)=O)O1 [Compound I-183, {(2R,3S,5R)-5-[4-amino-3-(quinolin-2-ylsulfanyl)-1H-pyrazolo[3,4-d]pyrimidin-1-yl]-3-hydroxytetrahydrofuran-2-yl}methyl sulfamate]
< 20 nM |  |  | 84% | Nc1ncnc2c1c(SC1CCCC1)nn2[C@@H]1O[C@H](COS(N)(=O)=O)[C@@H](O)[C@@H]1F [Compound I-103, {(2R,3R,4S,5R)-5-[4-amino-3-(cyclopentylsulfanyl)-1H-pyrazolo[3,4-d]pyrimidin-1-yl]-4-fluoro-3-hydroxytetrahydrofuran-2-yl}methyl sulfamate]
20 to 50 nM | 78% |  |  | Nc1ncnc2c1c(SCCc1ccccc1)nn2[C@@H]1O[C@H](COS(N)(=O)=O)[C@@H](O)[C@H]1O [Compound I-88, [(2R,3S,4R,5R)-5-{4-amino-3-[(2-phenylethyl)sulfanyl]-1H-pyrazolo[3,4-d]pyrimidin-1-yl}-3,4-dihydroxytetrahydrofuran-2-yl]methyl sulfamate]
100 to 500 nM |  |  | 50% | Cc1occc1Sc1nn([C@@H]2O[C@H](COS(N)(=O)=O)[C@@H](O)[C@@H]2F)c2ncnc(N)c12 [Compound I-100, [(2R,3R,4S,5R)-5-{4-amino-3-[(2-methyl-3-furyl)sulfanyl]-1H-pyrazolo[3,4-d]pyrimidin-1-yl}-4-fluoro-3-hydroxytetrahydrofuran-2-yl]methyl sulfamate]
50 to 100 nM |  |  | 58% | N#Cc1cccc(Sc2nn([C@@H]3O[C@H](COS(N)(=O)=O)[C@@H](O)[C@@H]3F)c3ncnc(N)c23)c1 [Compound I-153, [(2R,3R,4S,5R)-5-{4-amino-3-[(3-cyanophenyl)sulfanyl]-1H-pyrazolo[3,4-d]pyrimidin-1-yl}-4-fluoro-3-hydroxytetrahydrofuran-2-yl]methyl sulfamate]
20 to 50 nM | 83% |  |  | Cn1cc(Sc2nn([C@@H]3O[C@H](COS(N)(=O)=O)[C@@H](O)[C@H]3O)c3ncnc(N)c23)cn1 [Compound I-61, [(2R,3S,4R,5R)-5-{4-amino-3-[(1-methyl-1H-pyrazol-4-yl)sulfanyl]-1H-pyrazolo[3,4-d]pyrimidin-1-yl}-3,4-dihydroxytetrahydrofuran-2-yl]methyl sulfamate]
